solubility, MRT and EC50 data for four compounds are collected here from US20250382344A1, “Soluble GLP1/GIP/NPY2 Receptor Triple Agonists” (Boehringer Ingelheim International GmH, priority 2024, published 2025).

Read-outs that look alike come from different tables or passages of the source.

The term solubility denotes how much of the substance goes into solution per volume. One may read the MRT as a mean duration of stay, worked out from the concentration-time curve.

The nature of data set [1]: Solubility in 0.1 M phosphate buffer at pH 7. The class given is physicochemical. The following applies: 0.1 M phosphate buffer at pH 7, 10 mg/mL final peptide concentration, shaking 2 hours at room temperature, peptides as TFA-salts, measured sample pH 6.5-7.0.
The nature of data set [2]: Mouse PK after intravenous application. It is filed as in vivo. The following applies: plasma, male NMRI mice, intravenous 30-60 nmol/kg, non-compartmental analysis. On the procedure: Pharmacokinetic parameters of the peptides were determined after intravenous application to NMRI mice (Naval Medical Research Institute mice). Male NMRI mice were obtained from Janvier Laboratories (France) weighing 30 g to 40 g. Mice were housed in standard cages with a 12:12 hours light:dark cycle and standard food and water access ad libitum. Each test peptide was dissolved in 50 mM phosphate buffer (pH 7.4)/3.5% mannitol. Intravenous application of 30-60 nmol/kg was performed via the tail vein. Serial blood samples from conscious mice were collected from the saphenous vein in EDTA-containing vials at different time points up to 56 hours post-dosing. Subsequently, plasma was prepared by centrifugation for 5 minutes at approximately 5000 rpm and stored at −20° C. until quantification of the peptide plasma levels by liquid chromatography mass spectrometry (LC-MS). Individual plasma concentration-time profiles were analysed by a non-compartmental approach and the resulting pharmacokinetic parameters were calculated.

In data set [3] the target is T1, hNPY2R (Homo sapiens, UniProt P49146).
T1 construct: expressed in transfected cells; host or cells: HEK-293 CRE-luciferase reporter cells
T1 sequence (P49146 1-381): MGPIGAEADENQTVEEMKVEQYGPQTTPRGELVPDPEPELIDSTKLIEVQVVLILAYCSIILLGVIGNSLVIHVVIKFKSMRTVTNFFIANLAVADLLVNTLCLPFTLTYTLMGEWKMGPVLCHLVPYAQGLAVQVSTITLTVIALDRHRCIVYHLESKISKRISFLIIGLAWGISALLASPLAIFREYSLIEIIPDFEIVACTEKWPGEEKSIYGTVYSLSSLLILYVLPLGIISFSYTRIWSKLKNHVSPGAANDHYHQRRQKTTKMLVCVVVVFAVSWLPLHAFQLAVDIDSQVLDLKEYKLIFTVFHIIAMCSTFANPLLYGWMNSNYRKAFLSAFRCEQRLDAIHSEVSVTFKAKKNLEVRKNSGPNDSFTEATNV
The data set is described as follows: hNPY2R CreLuc assay in 0.5% and 100% plasma (HEK-293 CRE-luciferase reporter cells). It is filed as cell-based. Particulars: HEK-293 reporter cells. On the technique in general: Reporter assays use an easily measured gene product as a stand-in for the process of interest.

In data set [4] the target is T2, hGIPR (Homo sapiens, UniProt P48546).
T2 construct: expressed in transfected cells; host or cells: CHO CRE-luciferase reporter cells
T2 sequence (P48546 22-466): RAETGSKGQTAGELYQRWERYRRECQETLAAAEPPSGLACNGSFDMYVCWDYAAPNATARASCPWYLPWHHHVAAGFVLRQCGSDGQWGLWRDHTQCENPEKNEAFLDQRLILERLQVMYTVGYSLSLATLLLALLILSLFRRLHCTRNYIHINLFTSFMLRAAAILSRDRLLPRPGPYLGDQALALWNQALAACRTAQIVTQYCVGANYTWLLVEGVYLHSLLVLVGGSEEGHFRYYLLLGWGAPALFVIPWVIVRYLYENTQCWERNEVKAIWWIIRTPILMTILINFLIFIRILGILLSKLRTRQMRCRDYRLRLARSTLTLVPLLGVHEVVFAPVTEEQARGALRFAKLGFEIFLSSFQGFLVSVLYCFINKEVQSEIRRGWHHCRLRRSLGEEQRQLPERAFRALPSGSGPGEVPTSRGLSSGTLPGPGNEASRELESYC
Put plainly: hGIPR CreLuc assay in 0.5% and 100% plasma (CHO CRE-luciferase reporter cells). It is filed as cell-based.

In data set [5] the target is T3, hGLP1R (Homo sapiens, UniProt P43220).
T3 construct: expressed in transfected cells; host or cells: HEK-293 CRE-luciferase reporter cells
Put plainly: hGLP1R CreLuc assay in 0.5% and 100% plasma (HEK-293 CRE-luciferase reporter cells). The class given is cell-based. Particulars: HEK-293 reporter cells.

Setting [6] is: 0.5% human plasma, read-out: hGIPR 0.5% hP.
The mark [7] stands for this setting: 0.5% human plasma, read-out: hNPY2R 0.5% hP.
Setting [8] is: 0.5% human plasma, read-out: hGLP1R 0.5% hP.

T3 sequence (P43220 24-463): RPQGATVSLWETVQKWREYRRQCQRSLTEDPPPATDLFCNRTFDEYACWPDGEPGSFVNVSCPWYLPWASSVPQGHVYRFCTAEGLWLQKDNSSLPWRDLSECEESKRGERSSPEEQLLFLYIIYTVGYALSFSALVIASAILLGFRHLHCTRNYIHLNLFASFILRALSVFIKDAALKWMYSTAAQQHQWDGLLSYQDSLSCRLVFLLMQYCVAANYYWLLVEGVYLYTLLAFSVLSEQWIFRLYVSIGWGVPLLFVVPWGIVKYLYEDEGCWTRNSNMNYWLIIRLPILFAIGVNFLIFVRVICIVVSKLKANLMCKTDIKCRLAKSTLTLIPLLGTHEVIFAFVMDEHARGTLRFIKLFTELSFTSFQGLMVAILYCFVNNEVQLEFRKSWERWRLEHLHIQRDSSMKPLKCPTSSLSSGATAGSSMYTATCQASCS

In the case of `CC[C@H](C)[C@H](NC(=O)[C@H](CC(C)C)NC(=O)[C@H](Cc1c[nH]cn1)NC(=O)[C@H](CCCNC(=N)N)NC(=O)[C@@H](NC(=O)[C@H](Cc1ccccc1)NC(=O)[C@H](C)NC(=O)C(C)(C)NC(=O)[C@H](CCC(N)=O)NC(=O)[C@H](C)NC(=O)[C@H](CCC(N)=O)NC(=O)[C@H](CCCCN)NC(=O)[C@H](CCC(=O)O)NC(=O)[C@H](CC(C)C)NC(=O)C(C)(C)NC(=O)[C@@H](NC(=O)[C@H](CO)NC(=O)[C@H](Cc1ccc(O)cc1)NC(=O)[C@H](CC(=O)O)NC(=O)[C@H](CO)NC(=O)[C@@H](NC(=O)[C@H](Cc1ccccc1)NC(=O)[C@@H](NC(=O)CNC(=O)[C@H](CCC(=O)O)NC(=O)C(C)(C)NC(=O)[C@@H](N)Cc1ccc(O)cc1)[C@@H](C)O)[C@@H](C)O)[C@@H](C)CC)C(C)C)C(=O)N[C@@H](CC(N)=O)C(=O)N[C@@H](CCCCNC(=O)CCCCCNC(=O)CC[C@H](NC(=O)CC[C@H](NC(=O)CC[C@H](NC(=O)CC[C@H](NC(=O)CC[C@H](NC(=O)CC[C@H](NC(=O)CCCCCCCCCCCCCCCCC(=O)O)C(=O)O)C(=O)O)C(=O)O)C(=O)O)C(=O)O)C(=O)O)C(=O)NC(C)(C)C(=O)N[C@H](C(=O)N[C@@H](CCCNC(=N)N)C(=O)N[C@@H](CCC(N)=O)C(=O)N[C@@H](CCCNC(=N)N)C(=O)N[C@@H](Cc1ccc(O)cc1)C(N)=O)[C@@H](C)O` [Compound 9, Y-Aib-E-G-T-F-T-S-D-Y-S-I-Aib-L-E-K-Q-A-Q-Aib-A-F-V-R-H-L-I-N-K(1,3)-Aib-T-R-Q-R-Y-NH2.C18DA-gGlu-gGlu-gGlu-gGlu-gGlu-gGlu-AHX(1,2)], in data set [1] (read-out: Solubility), the solubility was determined as 4700 µg/mL. This compound also came in with an MRT in data set [2] of 7.5 h.
Turning to `CC[C@H](C)[C@H](NC(=O)[C@H](CC(C)C)NC(=O)[C@H](Cc1c[nH]cn1)NC(=O)[C@H](CCCNC(=N)N)NC(=O)[C@@H](NC(=O)[C@H](Cc1ccccc1)NC(=O)[C@H](C)NC(=O)[C@H](Cc1ccc(O)cc1)NC(=O)[C@H](CCC(N)=O)NC(=O)[C@H](C)NC(=O)[C@H](CCC(N)=O)NC(=O)[C@H](CCCCN)NC(=O)[C@H](CCC(=O)O)NC(=O)[C@H](CC(C)C)NC(=O)C(C)(C)NC(=O)[C@@H](NC(=O)[C@H](CO)NC(=O)[C@H](Cc1ccc(O)cc1)NC(=O)[C@H](CC(=O)O)NC(=O)[C@H](CO)NC(=O)[C@@H](NC(=O)[C@H](Cc1ccccc1)NC(=O)[C@@H](NC(=O)CNC(=O)[C@H](CCC(=O)O)NC(=O)C(C)(C)NC(=O)[C@@H](N)Cc1ccc(O)cc1)[C@@H](C)O)[C@@H](C)O)[C@@H](C)CC)C(C)C)C(=O)N[C@@H](CC(N)=O)C(=O)N[C@@H](CCCCNC(=O)[C@@H](N)CCCCNC(=O)CC[C@H](NC(=O)CC[C@H](NC(=O)CC[C@H](NC(=O)CC[C@H](NC(=O)CC[C@H](NC(=O)CC[C@H](NC(=O)CCCCCCCCCCCCCCCCC(=O)O)C(=O)O)C(=O)O)C(=O)O)C(=O)O)C(=O)O)C(=O)O)C(=O)NC(C)(C)C(=O)N[C@H](C(=O)N[C@@H](CCCNC(=N)N)C(=O)N[C@@H](CCC(N)=O)C(=O)N[C@@H](CCCNC(=N)N)C(=O)N[C@@H](Cc1ccc(O)cc1)C(N)=O)[C@@H](C)O` [Compound 151, Y-Aib-E-G-T-F-T-S-D-Y-S-I-Aib-L-E-K-Q-A-Q-Y-A-F-V-R-H-L-I-N-K(1,3)-Aib-T-R-Q-R-Y-NH2.C18DA-gGlu-gGlu-gGlu-gGlu-gGlu-gGlu-eLys(1,2)], the solubility at 2 h in data set [1] is 10300 µg/mL. Moreover, the EC50 in data set [3] (100% human plasma, read-out: hNPY2R 100% hP) stood at 89.8 nM; in data set [4] (setting [6]) it was 0.5 nM; in data set [4] (100% human plasma, read-out: hGIPR 100% hP), 5.6 nM; in data set [5] (100% human plasma, read-out: hGLP1R 100% hP), 7 nM.
Take `CC[C@H](C)[C@H](NC(=O)[C@H](CC(C)C)NC(=O)[C@H](Cc1ccc(O)cc1)NC(=O)[C@H](CCCNC(=N)N)NC(=O)[C@@H](NC(=O)[C@H](Cc1ccccc1)NC(=O)[C@H](C)NC(=O)C(C)(C)NC(=O)[C@H](CCC(N)=O)NC(=O)[C@H](C)NC(=O)[C@H](CCC(N)=O)NC(=O)[C@H](CCCCN)NC(=O)[C@H](CC(=O)O)NC(=O)[C@H](CC(C)C)NC(=O)C(C)(C)NC(=O)[C@@H](NC(=O)[C@H](CO)NC(=O)[C@H](Cc1ccc(O)cc1)NC(=O)[C@H](CC(=O)O)NC(=O)[C@H](CO)NC(=O)[C@@H](NC(=O)[C@H](Cc1ccccc1)NC(=O)[C@@H](NC(=O)CNC(=O)[C@H](CCC(=O)O)NC(=O)C(C)(C)NC(=O)[C@@H](N)Cc1ccc(O)cc1)[C@@H](C)O)[C@@H](C)O)[C@@H](C)CC)C(C)C)C(=O)N[C@@H](CC(N)=O)C(=O)N[C@@H](CCCCNC(=O)[C@@H](N)CCCCNC(=O)CC[C@H](NC(=O)CC[C@H](NC(=O)CC[C@H](NC(=O)CC[C@H](NC(=O)CC[C@H](NC(=O)CC[C@H](NC(=O)CCCCCCCCCCCCCCCCC(=O)O)C(=O)O)C(=O)O)C(=O)O)C(=O)O)C(=O)O)C(=O)O)C(=O)NC(C)(C)C(=O)N[C@H](C(=O)N[C@@H](CCCNC(=N)N)C(=O)N[C@@H](CCC(N)=O)C(=O)N[C@@H](CCCNC(=N)N)C(=O)N[C@@H](Cc1ccc(O)cc1)C(N)=O)[C@@H](C)O` [Compound 153, Y-Aib-E-G-T-F-T-S-D-Y-S-I-Aib-L-D-K-Q-A-Q-Aib-A-F-V-R-Y-L-I-N-K(1,3)-Aib-T-R-Q-R-Y-NH2.C18DA-gGlu-gGlu-gGlu-gGlu-gGlu-gGlu-eLys(1,2)]: the solubility at 2 h in data set [1] worked out at 8200 µg/mL. In addition, the figures for the EC50 in data set [3] (setting [7]), in data set [4] (setting [6]) and in data set [5] (setting [8]) were 40 nM, 0.1 nM and 0.1 nM, respectively.
For `CC[C@H](C)[C@H](NC(=O)[C@H](CC(C)C)NC(=O)[C@H](Cc1c[nH]cn1)NC(=O)[C@H](CCCNC(=N)N)NC(=O)[C@@H](NC(=O)[C@H](Cc1ccccc1)NC(=O)[C@H](C)NC(=O)C(C)(C)NC(=O)[C@H](CCC(N)=O)NC(=O)[C@H](C)NC(=O)[C@H](CCC(N)=O)NC(=O)[C@H](CCCCN)NC(=O)[C@H](CCC(=O)O)NC(=O)[C@H](CC(C)C)NC(=O)C(C)(C)NC(=O)[C@@H](NC(=O)[C@H](CO)NC(=O)[C@H](Cc1ccc(O)cc1)NC(=O)[C@H](CC(=O)O)NC(=O)[C@H](CO)NC(=O)[C@@H](NC(=O)[C@H](Cc1ccccc1)NC(=O)[C@@H](NC(=O)CNC(=O)[C@H](CCC(=O)O)NC(=O)C(C)(C)NC(=O)[C@@H](N)Cc1ccc(O)cc1)[C@@H](C)O)[C@@H](C)O)[C@@H](C)CC)C(C)C)C(=O)N[C@@H](CC(N)=O)C(=O)N[C@@H](CCCCNC(=O)CCCCCNC(=O)CC[C@H](NC(=O)CC[C@H](NC(=O)CC[C@H](NC(=O)CC[C@H](NC(=O)CC[C@H](NC(=O)CCCCCCCCCCCCCCCCCCC(=O)O)C(=O)O)C(=O)O)C(=O)O)C(=O)O)C(=O)O)C(=O)NC(C)(C)C(=O)N[C@H](C(=O)N[C@@H](CCCNC(=N)N)C(=O)N[C@@H](CCC(N)=O)C(=O)N[C@@H](CCCNC(=N)N)C(=O)N[C@@H](Cc1ccc(O)cc1)C(N)=O)[C@@H](C)O` [Compound 167, Y-Aib-E-G-T-F-T-S-D-Y-S-I-Aib-L-E-K-Q-A-Q-Aib-A-F-V-R-H-L-I-N-K(1,3)-Aib-T-R-Q-R-Y-NH2.C20DA-gGlu-gGlu-gGlu-gGlu-gGlu-AHX(1,2)], the solubility at 2 h in data set [1] came out at 10000 µg/mL. Also, the EC50 in data set [3] (setting [7]) worked out at 13.3 nM; in data set [4] (setting [6]), 0.2 nM; in data set [5] (setting [8]) it was 1 nM.
